Like-named read-outs stand apart in the source and are kept apart here.
Legend:
[1] = system: conjugation pair E. coli APEC-02 to E. coli HS-4 (plasmid pAPEC-02-211A-ColV, IncF); type: cell-based
[2] = system: conjugation pair E. coli APEC-02 to E. coli HS-4 in chicken ceca explants; type: cell-based
Description: Ex vivo ceca explants serve as models for bacterial host interactions. Plasmid transfer and its inhibition by SCFAs were tested using chicken ceca explants to mimic in vivo conditions. Chicken ceca explants were harvested from 2 week-old chickens, cultured in vitro, and used in co-culture with donors/recipients in the presence or absence of SCFAs.

[3] = system: conjugation pairs S. Kentucky CVM29188 to E. coli HS-4 and E. coli APEC-02 to E. coli HS-4; details: for reduction of donor and recipient strains / transconjugant populations: physiological concentrations of SCFAs in the chicken gut, both conjugation pairs
Description: Physiological concentrations of SCFAs in the chicken gut were added to broth conjugations with the conjugation pairs 1) S. Kentucky CVM29188 to E. coli HS-4, and 2) E. coli APEC-02 to E. coli HS-4 (FIG. 3).

[4] = system: transfer of conjugative plasmid pCVM29188_146 (IncF) between E. coli MG1655 (pCVM29188_146) and E. coli HS-4; test: In vitro broth conjugation with propionate at fly media concentrations; type: cell-based; details: as low as half the concentrations of standard Drosophila fly media
[5] = broth conjugation, varying molar concentrations between 0 and 1 molar (FIG. 4)
[6] = 25 mM, each SCFA used individually, ceca explants from 2 week-old chickens

**Q.** `CC(=O)O` [acetic acid] was tested. Which transconjugant populations [1] did it give?
**A.** significantly reduced

**Q.** And the “efficacy in inhibition of plasmid transfer” value (“efficacy in inhibition” below) [2]?
**A.** showed efficacy

**Q.** What about the “reduction of donor and recipient strains” value [3] of the same compound?
**A.** not

**Q.** And the transconjugant populations [3]?
**A.** significantly reduced

**Q.** With `CCCCC(=O)O` [valeric acid, valeric (pentanoic) acid] as the compound, how does the transconjugant populations [1, 5] read?
**A.** significantly reduced

**Q.** And the “efficacy in inhibition” value [2, 6]?
**A.** showed efficacy

**Q.** Which results are given for `O=CO` [formic acid]?
**A.** transconjugant populations [1]: significantly reduced; efficacy in inhibition of plasmid transfer [2]: showed efficacy

**Q.** What does the source list for `CC(C)CC(=O)O` [isovaleric acid, isovaleric (3-methylbutanoic)]?
**A.** transconjugant populations [1, 5]: significantly reduced; efficacy in inhibition of plasmid transfer [2, 6]: showed efficacy

**Q.** For `CCCC(=O)O` [butyric acid, butyric (butanoic) acid], which transconjugant populations [1, 5] is on record?
**A.** significantly reduced

**Q.** And the “efficacy in inhibition” value [2, 6]?
**A.** showed efficacy

**Q.** What about the “reduction of donor and recipient strains” value [3] of the same compound?
**A.** not

**Q.** What about the transconjugant populations [3] of the same compound?
**A.** significantly reduced

**Q.** How did the “conjugation frequency (transconjugants divided by donors)” value [4] turn out when `CCC(=O)O` [propionic acid] was run?
**A.** significant decreases

**Q.** And the transconjugant populations [1, 5]?
**A.** significantly reduced

**Q.** And the “efficacy in inhibition” value [2, 6]?
**A.** showed efficacy

**Q.** What about the conjugation ([3]; physiological concentrations of propionate in the chicken gut) of the same compound?
**A.** did not significantly reduce

**Q.** For `CC(C)C(=O)O` [isobutyric acid, isobutyric (2-methylbutanoic) acid], which transconjugant populations [1, 5] is on record?
**A.** significantly reduced

**Q.** And the “efficacy in inhibition” value [2, 6]?
**A.** showed efficacy

From US20230149483A1, “SHORT-CHAIN FATTY ACID USE TO MITIGATE ANT[…] VIRULENCE GENE TRANSFER IN THE GUT” (Iowa State University Research Foundation, Inc., priority 2021, published 2023)
